Test results from patent US9084813B2, “Agents that reduce neuronal overexcitation” (The J. David Gladstone Institutes, priority 2007, dated 2015).

Columns and labels:
[1] = test system: mice; test: Excitotoxicity assessment: PTZ-induced seizures; format: in vivo, mouse; conditions: single i.p. injection 40 mg/kg
Description: (§1) Drugs were dissolved in PBS and delivered by intraperitoneal injection. Pentylenetetrazole (PTZ, Sigma, St. Louis, Mo.) was used at a concentration of 5 mg/ml and a dose of 40 mg/kg. Kainate (Tocris, Ellisville, Mo.) was used at a concentration of 2 mg/ml and doses ranging from 20-40 mg/kg. For mice given PTZ, each mouse was placed in a cage and observed for 20 min after administration, with video recording. An investigator blinded to genotype analyzed the videotapes to quantify the time course and severity of seizures according to published scales (9, 10). Seizures severity scores were: 0=normal behavior; 1=immobility; 2=generalized spasm, tremble, or twitch; 3=tail extension; 4=forelimb clonus; 5=generalized clonic activity; 6=bouncing or running seizures; 7=full tonic extension; 8=death. For mice given KA, each mouse was placed in a cage and observed for 3 hours after administration. An investigator blinded to genotype quantified the time course and severity of seizures according to published scales (11); the percentage of mice attaining stage 6 (generalized tonic-clonic seizures) is presented.
A value of P<0.05 was considered significant. Error bars represent standard error of the mean. Survival data (FIG. 2E) was analyzed with Kaplan-Meier statistics and post-hoc log rank tests. Fisher's exact test was used to analyze occurrence of fatal status epilepticus after PTZ injection. Logistic regression was used to generate and compare dose-response curves for the proportion of mice seizing after KA administration (FIG. 4D). For other experiments, genotype differences were analyzed by ANOVA (repeated measures where indicated), using the Tukey test for post-hoc comparisons.

[2] = test system: mice; test: Excitotoxicity assessment: kainate-induced seizures; format: in vivo, mouse; conditions: Tau^+/+ mice, single i.p. injection, 20-40 mg/kg, age 2-5 months
Description: as §1
A value of P<0.05 was considered significant. […] Survival data (FIG. 2E) was analyzed with Kaplan-Meier statistics and post-hoc log rank tests. […] For other experiments, genotype differences were analyzed by ANOVA (repeated measures where indicated), using the Tukey test for post-hoc comparisons.

## C1CCc2nnnn2CC1 [PTZ, Pentylenetetrazole]
[1]; hAPP/Tau^+/+ mice, age 4-7 months
  mice suffering fatal status epilepticus: 20%
[1]; hAPP/Tau^+/− and hAPP/Tau^−/− mice
  death after PTZ: no hAPP/Tau^+/− or hAPP/Tau^−/− mice died
[1]; mice without hAPP
  lethality of the dose: non-lethal

## C=C(C)[C@H]1CN[C@H](C(=O)O)[C@H]1CC(=O)O [kainate, Kainate]
[2]
  induction of generalized tonic-clonic seizures: dose-dependently induced seizures
